Data published in patent publication US9359297B2, “Spirolactam derivatives and uses of same” (H. Lundbeck A/S, priority 2009, dated 2016).

Each molecule was assayed against T1, human metabotropic glutamate receptor 5 (hmGluR5) (Homo sapiens, UniProt P41594) (assay: Calcium mobilization (FLIPR) assay for negative allosteric modulation, EC80 glutamate, hmGluR5 in HEK 293). Details: HEK293; hmGluR5, inhibition of EC80 glutamate response; read-out: FLIPR maximum inhibition.
T1 construct: expressed in transfected cells
T1 sequence (P41594 21-1212): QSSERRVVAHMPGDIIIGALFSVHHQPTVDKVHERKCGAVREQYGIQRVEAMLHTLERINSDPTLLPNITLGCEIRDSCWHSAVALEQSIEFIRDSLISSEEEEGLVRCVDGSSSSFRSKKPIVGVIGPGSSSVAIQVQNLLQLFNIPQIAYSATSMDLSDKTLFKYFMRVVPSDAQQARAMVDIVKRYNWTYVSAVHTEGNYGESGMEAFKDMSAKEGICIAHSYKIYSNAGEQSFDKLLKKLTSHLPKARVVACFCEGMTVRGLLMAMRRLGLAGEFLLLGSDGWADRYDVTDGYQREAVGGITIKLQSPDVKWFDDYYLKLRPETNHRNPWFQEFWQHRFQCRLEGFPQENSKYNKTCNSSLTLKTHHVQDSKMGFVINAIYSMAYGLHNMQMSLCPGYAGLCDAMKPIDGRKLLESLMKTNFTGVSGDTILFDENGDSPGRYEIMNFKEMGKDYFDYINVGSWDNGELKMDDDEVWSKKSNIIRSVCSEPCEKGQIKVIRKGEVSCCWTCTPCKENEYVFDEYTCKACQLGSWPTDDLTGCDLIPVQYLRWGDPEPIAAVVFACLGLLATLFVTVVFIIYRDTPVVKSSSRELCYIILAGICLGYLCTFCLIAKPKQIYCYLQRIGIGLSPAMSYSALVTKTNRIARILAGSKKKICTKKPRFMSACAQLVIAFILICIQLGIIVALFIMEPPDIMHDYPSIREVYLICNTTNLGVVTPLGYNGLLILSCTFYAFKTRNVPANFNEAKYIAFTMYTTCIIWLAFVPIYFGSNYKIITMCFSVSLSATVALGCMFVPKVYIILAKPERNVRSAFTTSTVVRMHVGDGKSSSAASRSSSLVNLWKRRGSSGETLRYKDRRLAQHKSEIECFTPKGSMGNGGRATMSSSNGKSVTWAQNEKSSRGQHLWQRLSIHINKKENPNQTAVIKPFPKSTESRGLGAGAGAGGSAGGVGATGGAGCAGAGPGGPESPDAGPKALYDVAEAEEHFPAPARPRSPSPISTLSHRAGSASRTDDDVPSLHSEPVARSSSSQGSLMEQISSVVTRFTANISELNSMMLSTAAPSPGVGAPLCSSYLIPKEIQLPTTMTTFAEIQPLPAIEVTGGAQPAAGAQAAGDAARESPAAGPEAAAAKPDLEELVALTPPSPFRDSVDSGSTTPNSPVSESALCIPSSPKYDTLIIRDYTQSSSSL
Type: cell-based
Procedure, shortened: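 Stably transfected HEK 293 cells, Fluo-4-loaded, stimulated with EC80 glutamate plus test compound in HBSS/20 mM HEPES pH 7.4 with probenecid; FLIPR fluorescence read over 3 min at room temperature. Basal-subtracted maximum fluorescence change fitted by Hill equation; negative modulation seen as concentration-dependent inhibition of the EC80 response.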
In the case of `O=C(N[C@H]1CCC[C@]2(CCN(c3cccc(F)c3)C2=O)C1)c1nccs1` (relative stereo) [Example 137, cis-Thiazole-2-carboxylic acid [2-(3-fluoro-phenyl)-1-oxo-2-aza-spiro[4.5]dec-7-yl]-amide], the Emax is reported as 47 to 93%.
For `CC1(F)CC(NC(=O)c2ccccn2)CC2(CCN(c3cccc(F)c3)C2=O)C1` (centres unmarked) [Example 160, Pyridine-2-carboxylic acid [9-fluoro-2-(3-fluoro-phenyl)-9-methyl-1-oxo-2-aza-spiro[4.5]dec-7-yl]-amide], the Emax was 47 to 93%.
Work on `Cc1nccc(C(=O)N[C@H]2CCC[C@]3(CCN(c4cc(F)cc(F)c4)C3=O)C2)n1` (racemic) [Example 76, cis 2-Methyl-pyrimidine-4-carboxylic acid [2-(3,5-difluoro-phenyl)-1-oxo-2-aza-spiro[4.5]dec-7-yl]-amide] yielded an Emax of 73 to 95%.
Molecule `Cc1cccc(C(=O)N[C@@H]2C[C@@H](O)C[C@@]3(CCN(c4cccc(F)c4)C3=O)C2)n1` (relative stereo) [Example 126, trans-6-Methyl-pyridine-2-carboxylic acid [2-(3-fluoro-phenyl)-9-hydroxy-1-oxo-2-aza-spiro[4.5]dec-7-yl]-amide] has an Emax of 47 to 93%.
Work on `O=C(N[C@H]1CCC[C@]2(CCN(c3cccc(OCC(=O)N4CCCC4)c3)C2=O)C1)c1cccc(F)c1` (relative stereo) [Example 136, cis-3-Fluoro-N-{1-oxo-2-[3-(2-oxo-2-pyrrolidin-1-yl-ethoxy)-phenyl]-2-aza-spiro[4.5]dec-7-yl}-benzamide] yielded an Emax of 47 to 93%.
`CCN1CC[C@]2(CCC[C@H](NC(=O)c3cccc(C)n3)C2)C1=O` (relative stereo) [Example 154] gave an Emax of 47 to 93%.
`Cc1nccc(N2CC[C@]3(CCC[C@H](NC(=O)c4cccc(Cl)c4)C3)C2=O)n1` (racemic) [Example 58] gave an Emax of 73 to 95%.
Work on `O=C1c2ccccc2CN1C1CCCC2(CCN(c3cccc(Cl)c3)C2=O)C1` (single isomer, unassigned) [Example 100, cis-2-[2-(3-chloro-phenyl)-1-oxo-2-aza-spiro[4.5]dec-7-yl]-2,3-dihydro-isoindol-1-one] yielded an Emax of 47 to 93%.
In the case of `Cc1cccc(C(=O)N[C@@H]2CCC[C@@]3(CCN(c4ccc(F)cc4)C3=O)C2)n1` [Example 80, 6-Methyl-pyridine-2-carboxylic acid [(5R,7R)-2-(4-fluoro-phenyl)-1-oxo-2-aza-spiro[4.5]dec-7-yl]-amide], the Emax is reported as 73 to 95%.
With `Cc1nccc(C(=O)N[C@@H]2CC(F)(F)C[C@@]3(CCN(c4cccc(F)c4)C3=O)C2)n1` (racemic) [Example 129, cis-2-Methyl-pyrimidine-4-carboxylic acid [9,9-difluoro-2-(3-fluoro-phenyl)-1-oxo-2-aza-spiro[4.5]dec-7-yl]-amide] the Emax was 47 to 93%.
`O=C(N[C@@H]1CC(F)(F)C[C@@]2(CCN(c3cc(F)cc(F)c3)C2=O)C1)c1ccccn1` (racemic) [Example 110, cis-Pyridine-2-carboxylic acid [2-(3,5-difluoro-phenyl)-9,9-difluoro-1-oxo-2-aza-spiro[4.5]dec-7-yl]-amide] was tested, and the Emax was 47 to 93%.
`O=C(N[C@@H]1CCC[C@@]2(CCN(c3cc(F)cc(F)c3)C2=O)C1)c1nccs1` (relative stereo) [Example 143, cis-Thiazole-2-carboxylic acid [2-(3,5-difluoro-phenyl)-1-oxo-2-aza-spiro[4.5]dec-7-yl]-amide] was tested, and the Emax was 47 to 93%.
Work on `Cc1nccc(C(=O)N[C@H]2CCC[C@]3(CCN(c4cccc(F)c4)C3=O)C2)n1` (relative stereo) [Example 69, cis-2-Methyl-pyrimidine-4-carboxylic acid [2-(3-fluoro-phenyl)-1-oxo-2-aza-spiro[4.5]dec-7-yl]-amide] yielded an Emax of 73 to 95%.

These molecules were tested against T2, rat metabotropic glutamate receptor 5 (rmGluR5) (Rattus norvegicus, UniProt P31424) (assay: Calcium mobilization (FLIPR) assay for negative allosteric modulation, EC80 glutamate, rmGluR5 in HEK 293). Details: HEK293; rmGluR5, inhibition of EC80 glutamate response; read-out: FLIPR maximum inhibition.
T2 construct: expressed in transfected cells
T2 sequence (P31424 21-1203): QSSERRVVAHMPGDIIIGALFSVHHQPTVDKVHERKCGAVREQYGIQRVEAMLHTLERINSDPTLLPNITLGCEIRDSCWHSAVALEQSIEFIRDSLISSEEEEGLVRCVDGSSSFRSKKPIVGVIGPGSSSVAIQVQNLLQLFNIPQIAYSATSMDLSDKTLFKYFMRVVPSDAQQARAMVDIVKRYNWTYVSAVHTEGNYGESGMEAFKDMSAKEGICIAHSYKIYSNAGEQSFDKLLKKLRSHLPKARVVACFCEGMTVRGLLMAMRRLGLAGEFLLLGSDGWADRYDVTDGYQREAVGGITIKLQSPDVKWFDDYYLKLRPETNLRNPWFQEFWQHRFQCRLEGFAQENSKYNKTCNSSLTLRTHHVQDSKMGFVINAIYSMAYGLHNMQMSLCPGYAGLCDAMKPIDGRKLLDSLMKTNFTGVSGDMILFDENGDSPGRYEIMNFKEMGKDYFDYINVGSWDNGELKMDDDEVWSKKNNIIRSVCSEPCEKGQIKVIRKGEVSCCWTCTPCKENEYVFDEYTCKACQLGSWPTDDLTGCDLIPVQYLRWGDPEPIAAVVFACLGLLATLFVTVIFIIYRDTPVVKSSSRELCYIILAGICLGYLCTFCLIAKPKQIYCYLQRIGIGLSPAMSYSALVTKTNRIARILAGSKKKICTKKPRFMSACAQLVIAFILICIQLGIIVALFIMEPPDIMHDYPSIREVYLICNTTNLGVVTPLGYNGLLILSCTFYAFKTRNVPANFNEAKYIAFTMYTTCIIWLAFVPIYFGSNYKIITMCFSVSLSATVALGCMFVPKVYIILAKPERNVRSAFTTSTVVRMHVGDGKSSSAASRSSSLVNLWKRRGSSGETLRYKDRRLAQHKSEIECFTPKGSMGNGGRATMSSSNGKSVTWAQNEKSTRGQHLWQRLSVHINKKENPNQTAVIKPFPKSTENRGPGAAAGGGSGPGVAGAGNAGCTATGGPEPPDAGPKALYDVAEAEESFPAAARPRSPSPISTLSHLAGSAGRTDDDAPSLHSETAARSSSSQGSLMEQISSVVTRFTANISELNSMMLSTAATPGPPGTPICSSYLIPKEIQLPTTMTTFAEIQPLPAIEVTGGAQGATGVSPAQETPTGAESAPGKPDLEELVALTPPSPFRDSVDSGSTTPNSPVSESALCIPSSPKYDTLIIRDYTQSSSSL
Type: cell-based
Method: The cDNA for rat metabotropic glutamate receptor 5 (rmGluR5) and the cDNA for human metabotropic glutamate receptor 5 (hmGluR5) were generous gifts from S. Nakanishi (Kyoto University, Kyoto, Japan). The rmGluR5 or hmGluR5 was stably expressed in a HEK 293 cell line and grown in Dulbecco's Modified Eagle Medium (DMEM) (Invitrogen, Carlsbad, Calif.) with supplements (10% bovine calf serum, 4 mM glutamine, 100 units/mL penicillin, 100 μg/mL streptomycin and 0.75 mM G1418) at 37° C., 5% CO2. Twenty-four hours prior to assay, cells were seeded into 384-well black wall microtiter plates coated with poly-D-lysine. Just prior to assay, media was aspirated and cells dye-loaded (25 μL/well) with 3 μM Fluo-4/0.01% pluronic acid in assay buffer (Hank's Balanced Saline Solution (HBSS)): 150 mM NaCl, 5 mM KCl, 1 mM CaCl2, 1 mM MgCl2, plus 20 mM N-2-Hydroxyethylpiperazine-N′-2-ethanesulfonic acid (HEPES), pH 7.4, 0.1% bovine serum albumin (BSA) and 2.5 mM probenicid) for 1 hour in 5% CO2 at 37° C. After excess dye was discarded, cells were washed in assay buffer and layered with a final volume equal to 30 μL/well. Basal fluorescence is monitored in a fluorometric imaging plate reader (FLIPR) (Molecular Devices, Sunnyvale, Calif.) with an excitation wavelength of 488 nm and an emission range of 500 to 560 nm. Laser excitation energy was adjusted so that basal fluorescence readings were approximately 10,000 relative fluorescent units. Cells were stimulated with an EC20 or an EC80 concentration of glutamate in the presence of a compound to be tested, both diluted in assay buffer, and relative fluorescent units were measured at defined intervals (exposure=0.6 sec) over a 3 min period at room temperature. Basal readings derived from negative controls were subtracted from all samples. Maximum change in fluorescence was calculated for each well. Concentration-response curves derived from the maximum change in fluorescence were analyzed by nonlinear regression (Hill equation). A negative modulator can be identified from these concentration-response curves if a compound produces a concentration dependent inhibition of the EC80 glutamate response.
Molecule `N#Cc1cccc(N2CC[C@]3(CCC[C@H](NC(=O)c4ccccn4)C3)C2=O)c1` (relative stereo) [Example 9, cis-Pyridine-2-carboxylic acid [2-(3-cyano-phenyl)-1-oxo-2-aza-spiro[4.5]dec-7-yl]-amide] has an Emax of 81 to 99%.
For `O=C(N[C@H]1CCC[C@]2(CCN(c3cc(F)ccn3)C2=O)C1)c1ccccn1` (relative stereo) [Example 30, cis-Pyridine-2-carboxylic acid [2-(4-fluoro-pyridin-2-yl)-1-oxo-2-aza-spiro[4.5]dec-7-yl]-amide], the Emax was 81 to 99%.
`Cc1cccc(N2CC[C@@]3(CCC[C@@H](NC(=O)c4cccc(F)c4)C3)C2=O)n1` [Example 28, 3-Fluoro-N-[(5R,7R)-2-(6-methyl-pyridin-2-yl)-1-oxo-2-aza-spiro[4.5]dec-7-yl]-benzamide] showed an Emax of 81 to 99%.
For `Cc1cncc(C(=O)N[C@H]2CCC[C@@]3(CCN(c4cccc(F)c4)C3=O)C2)n1` (relative stereo) [Example 22, trans-6-Methyl-pyrazine-2-carboxylic acid[2-(3-fluoro-phenyl)-1-oxo-2-aza-spiro [4.5]dec-7-yl]-amide], the Emax was 81 to 99%.
For `Cc1cccc(C(=O)N[C@H]2CCC[C@@]3(CCN(c4cccc(F)c4)C3=O)C2)n1` (relative stereo) [Example 18, trans-6-Methyl-pyridine-2-carboxylic acid [2-(3-fluoro-phenyl)-1-oxo-2-aza-spiro [4.5]dec-7-yl]-amide], the Emax was 81 to 99%.
Molecule `N#Cc1cccc(N2CC[C@]3(CCC[C@H](NC(=O)c4cccc(F)c4)C3)C2=O)c1` (relative stereo) [Example 15, cis-N-[2-(3-Cyano-phenyl)-1-oxo-2-aza-spiro[4.5]dec-7-yl]-3-fluoro-benzamide] has an Emax of 81 to 99%.
For `Cc1cncc(C(=O)N[C@H]2CCC[C@]3(CCN(c4cc(F)cc(F)c4)C3=O)C2)n1` (relative stereo) [Example 55, cis-6-Methyl-pyrazine-2-carboxylic acid [2-(3,5-difluoro-phenyl)-1-oxo-2-aza-spiro [4.5]dec-7-yl]-amide], the Emax was 81 to 99%.
Molecule `Cc1cccc(C(=O)N[C@H]2CCC[C@]3(CCN(c4cccc(C#N)n4)C3=O)C2)n1` (relative stereo) [Example 43, cis-6-Methyl-pyridine-2-carboxylic acid [2-(6-cyano-pyridin-2-yl)-1-oxo-2-aza-spiro[4.5]dec-7-yl]-amide] has an Emax of 81 to 99%.
`Cc1cccc(C(=O)N[C@H]2CCC[C@]3(CCN(c4cc(F)ccn4)C3=O)C2)n1` (relative stereo) [Example 32, cis-6-Methyl-pyridine-2-carboxylic acid [2-(4-fluoro-pyridin-2-yl)-1-oxo-2-aza-spiro[4.5]dec-7-yl]-amide] gave an Emax of 81 to 99%.
With `Cc1cncc(N2CC[C@]3(CCC[C@H](NC(=O)c4ccccn4)C3)C2=O)n1` (relative stereo) [Example 39, cis-Pyridine-2-carboxylic acid [2-(6-methyl-pyrazin-2-yl)-1-oxo-2-aza-spiro [4.5]dec-7-yl]-amide] the Emax was 81 to 99%.
For `Cc1ccnc(N2CC[C@]3(CCC[C@H](NC(=O)c4cccc(C)n4)C3)C2=O)c1` (relative stereo) [Example 48, cis-6-Methyl-pyridine-2-carboxylic acid [2-(4-methyl-pyridin-2-yl)-1-oxo-2-aza-spiro[4.5]dec-7-yl]-amide], the Emax was 81 to 99%.
In the case of `Cc1cncc(N2CC[C@]3(CCC[C@H](NC(=O)c4cccc(F)c4)C3)C2=O)n1` (relative stereo) [Example 38, cis-3-Fluoro-N-[2-(6-methyl-pyrazin-2-yl)-1-oxo-2-aza-spiro[4.5]dec-7-yl]-benzamide], the Emax is reported as 81 to 99%.
`O=C(N[C@H]1CCC[C@]2(CCN(c3cccc(Cl)c3)C2=O)C1)c1ccccn1` (single isomer, unassigned) [Example 6] was tested, and the Emax was 81 to 99%.
With `O=C(N[C@H]1CCC[C@]2(CCN(c3cc(F)cc(F)c3)C2=O)C1)c1cnccn1` (relative stereo) [Example 56, cis-Pyrazine-2-carboxylic acid [2-(3,5-difluoro-phenyl)-1-oxo-2-aza-spiro [4.5]dec-7-yl]-amide] the Emax was 81 to 99%.
`Cc1cccc(C(=O)N[C@H]2CCC[C@@]3(CCN(c4cccc(Cl)c4)C3=O)C2)n1` (relative stereo) [Example 3, trans-6-Methyl-pyridine-2-carboxylic acid [2-(3-chloro-phenyl)-1-oxo-2-aza-spiro [4.5]dec-7-yl]-amide] was tested, and the Emax was 81 to 99%.
`Cc1cncc(C(=O)N[C@H]2CCC[C@]3(CCN(c4cccc(C#N)c4)C3=O)C2)n1` (relative stereo) [Example 11, cis-6-Methyl-pyrazine-2-carboxylic acid [2-(3-cyano-phenyl)-1-oxo-2-aza-spiro [4.5]dec-7-yl]-amide] was tested, and the Emax was 81 to 99%.
